Source: PubChem BioAssay AID1963980 (Molecular Pharmacology Branch, DTP, NCI, 2024)

Test system: 475296-252-R-J1-PDC spheroid viability
Assay: Anticancer human tumor 475296-252-R-J1-PDC patient-derived rectal carcinoma cell line growth inhibition [PI3K]
Settings: spheroids with HUVEC and MSC; for IC50: curve of first compound; for viability, T/C: stronger effect = lower value
Method in brief: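 Viability of mixed-cell spheroids was determined after exposure to pairwise combinations, one partner being inavolisib, alpelisib, duvelisib or copanlisib. Highest tested concentration matched clinical Cmax where known and 10 microM where not, descending in half-log steps.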
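Also: spheroids exposed to agents for seven days before readout.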

With CC1(C)CCC(Nc2ncc(C(F)(F)F)c(-c3c[nH]c4c(P(C)(C)=O)c(C#N)ccc34)n2)CN1 (centres undefined) + CC(Nc1ncnc2nc[nH]c12)c1cc2cccc(Cl)c2c(=O)n1-c1ccccc1 the IC50 (second compound 0.0316 µM) was greater than 10000 nM, the IC50 (second compound 0.1 µM) was greater than 10000 nM and the IC50 (second compound 0.316 µM) was greater than 10000 nM. It also gave an IC50 (second compound 1 µM) greater than 10000 nM, an IC50 (second compound 3.16 µM) greater than 10000 nM and an IC50 (second compound 10 µM) of 9120 nM. For the same compound, the viability, T/C (second compound 0.0316 µM, first compound 0.0316 µM) was 97.6%, the viability, T/C (second compound 0.0316 µM, first compound 0.1 µM) was 93% and the viability, T/C (second compound 0.0316 µM, first compound 0.316 µM) was 93.1%. The viability, T/C (second compound 0.0316 µM, first compound 1 µM) was 129%, the viability, T/C (second compound 0.0316 µM, first compound 3.16 µM) was 160% and the viability, T/C (second compound 0.0316 µM, first compound 10 µM) was 64.5%. For the same compound, the viability, T/C (second compound 0.1 µM, first compound 0.0316 µM) was 98%, the viability, T/C (second compound 0.1 µM, first compound 0.1 µM) was 91.5% and the viability, T/C (second compound 0.1 µM, first compound 0.316 µM) was 95.1%. For the same compound, the viability, T/C (second compound 0.1 µM, first compound 1 µM) was 117%, the viability, T/C (second compound 0.1 µM, first compound 3.16 µM) was 159% and the viability, T/C (second compound 0.1 µM, first compound 10 µM) was 52.2%. For the same compound, the viability, T/C (second compound 0.316 µM, first compound 0.0316 µM) was 93.8%, the viability, T/C (second compound 0.316 µM, first compound 0.1 µM) was 86.8% and the viability, T/C (second compound 0.316 µM, first compound 0.316 µM) was 114%. It also gave a viability, T/C (second compound 0.316 µM, first compound 1 µM) of 120%, a viability, T/C (second compound 0.316 µM, first compound 3.16 µM) of 164% and a viability, T/C (second compound 0.316 µM, first compound 10 µM) of 55.7%. For the same compound, the viability, T/C (second compound 1 µM, first compound 0.0316 µM) was 98.8%, the viability, T/C (second compound 1 µM, first compound 0.1 µM) was 92.9% and the viability, T/C (second compound 1 µM, first compound 0.316 µM) was 86.5%. For the same compound, the viability, T/C (second compound 1 µM, first compound 1 µM) was 139%, the viability, T/C (second compound 1 µM, first compound 3.16 µM) was 166% and the viability, T/C (second compound 1 µM, first compound 10 µM) was 54.1%. The viability, T/C (second compound 3.16 µM, first compound 0.0316 µM) was 91.9%, the viability, T/C (second compound 3.16 µM, first compound 0.1 µM) was 86% and the viability, T/C (second compound 3.16 µM, first compound 0.316 µM) was 89.6%. For the same compound, the viability, T/C (second compound 3.16 µM, first compound 1 µM) was 113%, the viability, T/C (second compound 3.16 µM, first compound 3.16 µM) was 154% and the viability, T/C (second compound 3.16 µM, first compound 10 µM) was 53.3%. For the same compound, the viability, T/C (second compound 10 µM, first compound 0.0316 µM) was 88.7%, the viability, T/C (second compound 10 µM, first compound 0.1 µM) was 81.6% and the viability, T/C (second compound 10 µM, first compound 0.316 µM) was 102%. For the same compound, the viability, T/C (second compound 10 µM, first compound 1 µM) was 128%, the viability, T/C (second compound 10 µM, first compound 3.16 µM) was 152% and the viability, T/C (second compound 10 µM, first compound 10 µM) was 44.7%.

Work on Cn1cnc2c(F)c(Nc3ccc(Br)cc3Cl)c(C(=O)NOCCO)cc21 + COc1c(OCCCN2CCOCC2)ccc2c3n(c(=NC(=O)c4cnc(N)nc4)nc12)CCN3 yielded an IC50 (second compound 0.00316 µM) of 2050 nM, an IC50 (second compound 0.01 µM) of 469 nM and an IC50 (second compound 0.0316 µM) of 162 nM. It also gave an IC50 (second compound 0.1 µM) of 94.2 nM, an IC50 (second compound 0.316 µM) of 27.1 nM and an IC50 (second compound 1 µM) of less than 9.49 nM. The viability, T/C (second compound 0.00316 µM, first compound 0.00949 µM) was 88%, the viability, T/C (second compound 0.00316 µM, first compound 0.03 µM) was 75.5% and the viability, T/C (second compound 0.00316 µM, first compound 0.0949 µM) was 73.4%. It also gave a viability, T/C (second compound 0.00316 µM, first compound 0.3 µM) of 60.6%, a viability, T/C (second compound 0.00316 µM, first compound 0.949 µM) of 62.5% and a viability, T/C (second compound 0.00316 µM, first compound 3 µM) of 44.2%. For the same compound, the viability, T/C (second compound 0.01 µM, first compound 0.00949 µM) was 90.6%, the viability, T/C (second compound 0.01 µM, first compound 0.03 µM) was 90% and the viability, T/C (second compound 0.01 µM, first compound 0.0949 µM) was 63%. The viability, T/C (second compound 0.01 µM, first compound 0.3 µM) was 53.3%, the viability, T/C (second compound 0.01 µM, first compound 0.949 µM) was 53.8% and the viability, T/C (second compound 0.01 µM, first compound 3 µM) was 36.9%. It also gave a viability, T/C (second compound 0.0316 µM, first compound 0.00949 µM) of 84.1%, a viability, T/C (second compound 0.0316 µM, first compound 0.03 µM) of 63.3% and a viability, T/C (second compound 0.0316 µM, first compound 0.0949 µM) of 56.3%. The viability, T/C (second compound 0.0316 µM, first compound 0.3 µM) was 42.6%, the viability, T/C (second compound 0.0316 µM, first compound 0.949 µM) was 37% and the viability, T/C (second compound 0.0316 µM, first compound 3 µM) was 18.8%. For the same compound, the viability, T/C (second compound 0.1 µM, first compound 0.00949 µM) was 65%, the viability, T/C (second compound 0.1 µM, first compound 0.03 µM) was 67.6% and the viability, T/C (second compound 0.1 µM, first compound 0.0949 µM) was 48.7%. The viability, T/C (second compound 0.1 µM, first compound 0.3 µM) was 25.6%, the viability, T/C (second compound 0.1 µM, first compound 0.949 µM) was 16.5% and the viability, T/C (second compound 0.1 µM, first compound 3 µM) was 6.68%. The viability, T/C (second compound 0.316 µM, first compound 0.00949 µM) was 55.9%, the viability, T/C (second compound 0.316 µM, first compound 0.03 µM) was 49.8% and the viability, T/C (second compound 0.316 µM, first compound 0.0949 µM) was 29.4%. It also gave a viability, T/C (second compound 0.316 µM, first compound 0.3 µM) of 10.7%, a viability, T/C (second compound 0.316 µM, first compound 0.949 µM) of 5.48% and a viability, T/C (second compound 0.316 µM, first compound 3 µM) of 2.56%. It also gave a viability, T/C (second compound 1 µM, first compound 0.00949 µM) of 47.1%, a viability, T/C (second compound 1 µM, first compound 0.03 µM) of 41.5% and a viability, T/C (second compound 1 µM, first compound 0.0949 µM) of 22.2%. It also gave a viability, T/C (second compound 1 µM, first compound 0.3 µM) of 9.1%, a viability, T/C (second compound 1 µM, first compound 0.949 µM) of 5.23% and a viability, T/C (second compound 1 µM, first compound 3 µM) of 3.35%.
